Data published in the NIST ThermoML archive (doi:10.1016/j.jct.2012.08.021).

What was measured:
[1] = 101 kPa, Liquid, Vibrating tube method
[2] = xn = mol fraction of the nth substance listed; details: 101 kPa, Liquid, Vibrating tube method, x2 = 0

OCCNCCO [diethanolamine]
[1]
Details	mass density [kg/m3]
293.15 K	1097.61
303.15 K	1091.17
313.15 K	1084.6
323.15 K	1077.88
333.14 K	1071.11
343.14 K	1064.25
353.14 K	1057.31
363.15 K	1050.24

NCCO [2-aminoethan-1-ol]
[1]
Details	mass density [kg/m3]
293.16 K	1016.34
303.14 K	1008.4
313.14 K	1000.41
323.15 K	992.384
333.14 K	984.302
343.14 K	976.141
353.14 K	967.893
363.15 K	959.536

C[S+](C)[O-] [dimethyl sulfoxide]
[1]
Details	mass density [kg/m3]
293.14 K	1100.87
303.15 K	1090.81
313.14 K	1080.77
323.14 K	1070.73
333.15 K	1060.68
343.14 K	1050.62
353.14 K	1040.54
363.15 K	1030.43

C[S+](C)[O-] [dimethyl sulfoxide] + CN(CCO)CCO
[2]
Details	mass density [kg/m3]
293.14 K	1100.87
303.15 K	1090.81
313.14 K	1080.77
323.14 K	1070.73
333.15 K	1060.68
343.14 K	1050.62
353.14 K	1040.54
363.15 K	1030.43

C[S+](C)[O-] [dimethyl sulfoxide] + OCCNCCO
[2]
Details	mass density [kg/m3]
293.14 K	1100.87
303.15 K	1090.81
313.14 K	1080.77
323.14 K	1070.73
333.15 K	1060.68
343.14 K	1050.62
353.14 K	1040.54
363.15 K	1030.43

CN(CCO)CCO [N-methyldiethanolamine]
[1]
Details	mass density [kg/m3]
293.15 K	1040.6
303.15 K	1033.02
313.15 K	1025.4
323.15 K	1017.74
333.15 K	1010.03
343.15 K	1002.25
353.14 K	994.404
363.15 K	986.471

C[S+](C)[O-] [dimethyl sulfoxide] + NCCO
[2]
Details	mass density [kg/m3]
293.14 K	1100.87
303.15 K	1090.81
313.14 K	1080.77
323.14 K	1070.73
333.15 K	1060.68
343.14 K	1050.62
353.14 K	1040.54
363.15 K	1030.43
